According to ChEMBL document CHEMBL1201862, “PubChem BioAssay data set” (2004):
Active and inactive are the calls of the source.

Assays:
Bcl-2-like protein 10 = target: T1, Bcl-2-like protein 10 (Homo sapiens, UniProt Q9HD36); experiment: Bcl-B/TR3 peptide binding disruption – biochemical, fluorescence polarization, FITC-TR3 peptide, selectivity assay for Bfl-1 inhibitor project, primary screen (AID 748);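 also: fluorescence polarization from a fluorescein-labelled TR3 peptide binding purified Bcl-B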
T1 sequence (Q9HD36 whole entry): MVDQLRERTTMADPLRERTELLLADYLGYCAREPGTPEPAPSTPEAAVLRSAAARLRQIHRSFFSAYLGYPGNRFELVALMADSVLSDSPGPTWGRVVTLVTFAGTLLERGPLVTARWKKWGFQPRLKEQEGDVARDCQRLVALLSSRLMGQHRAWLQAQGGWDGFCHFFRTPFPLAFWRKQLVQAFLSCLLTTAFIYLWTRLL

[1] = target: T2, Apoptotic protease-activating factor 1 (Homo sapiens, UniProt O14727); type: functional
T2 sequence (O14727 whole entry): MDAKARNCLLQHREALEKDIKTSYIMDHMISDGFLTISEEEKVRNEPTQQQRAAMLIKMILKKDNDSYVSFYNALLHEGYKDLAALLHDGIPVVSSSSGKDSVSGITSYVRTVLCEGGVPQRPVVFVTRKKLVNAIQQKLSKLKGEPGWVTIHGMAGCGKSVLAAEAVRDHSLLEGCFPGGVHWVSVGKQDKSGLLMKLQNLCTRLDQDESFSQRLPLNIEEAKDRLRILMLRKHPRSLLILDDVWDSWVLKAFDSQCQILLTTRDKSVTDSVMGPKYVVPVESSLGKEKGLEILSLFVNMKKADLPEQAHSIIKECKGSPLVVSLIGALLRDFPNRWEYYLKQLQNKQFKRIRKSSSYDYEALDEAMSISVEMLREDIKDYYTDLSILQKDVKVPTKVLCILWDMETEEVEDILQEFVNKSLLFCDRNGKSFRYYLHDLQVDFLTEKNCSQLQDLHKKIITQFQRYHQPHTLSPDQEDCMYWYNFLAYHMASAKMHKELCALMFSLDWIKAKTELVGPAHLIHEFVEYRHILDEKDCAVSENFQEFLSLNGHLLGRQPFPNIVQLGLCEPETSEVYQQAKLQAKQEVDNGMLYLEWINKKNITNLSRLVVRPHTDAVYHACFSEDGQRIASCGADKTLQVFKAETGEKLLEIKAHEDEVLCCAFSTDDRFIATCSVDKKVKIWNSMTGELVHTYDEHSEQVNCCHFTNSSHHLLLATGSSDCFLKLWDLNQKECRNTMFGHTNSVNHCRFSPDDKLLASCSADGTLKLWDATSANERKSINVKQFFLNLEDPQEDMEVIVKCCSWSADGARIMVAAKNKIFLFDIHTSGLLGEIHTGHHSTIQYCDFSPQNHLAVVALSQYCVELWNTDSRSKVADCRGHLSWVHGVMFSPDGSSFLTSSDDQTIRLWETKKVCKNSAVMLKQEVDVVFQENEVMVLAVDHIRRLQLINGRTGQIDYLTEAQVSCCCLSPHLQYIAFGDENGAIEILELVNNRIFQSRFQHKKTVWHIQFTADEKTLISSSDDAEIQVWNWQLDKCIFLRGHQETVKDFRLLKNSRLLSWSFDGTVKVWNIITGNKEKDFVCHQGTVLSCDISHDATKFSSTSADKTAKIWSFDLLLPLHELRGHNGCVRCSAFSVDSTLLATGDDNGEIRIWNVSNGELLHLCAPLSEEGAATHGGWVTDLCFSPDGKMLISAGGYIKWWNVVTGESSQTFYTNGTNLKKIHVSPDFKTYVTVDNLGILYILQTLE

Cytochrome P450 2C9 = Cytochrome P450 2C9 (Homo sapiens, UniProt P11712)
[2] = target: Intestinal-type alkaline phosphatase (Homo sapiens, UniProt P09923); experiment: Dose Response confirmation of uHTS hits from a small molecule inhibitors of human intestinal alkaline phosphatase via a luminescent assay. [Related pubchem assays (depositor defined):AID2544, AID2574]; type: functional
HEK293 [3] = experiment: cells; type: functional, cell-based; conditions: Homo sapiens
[4] = target: Nucleotide-binding oligomerization domain-containing protein 2 (Homo sapiens, UniProt Q9HC29); experiment: inhibition of NOD2-driven NF-kB reporter – cell-based, luminescence, uHTS, HEK293 (AID 1566); type: functional
HEK293 [5] = experiment: inhibition of NOD1-driven NF-kB reporter – cell-based, luminescence, uHTS, primary screen (AID 1578); type: functional; conditions: Homo sapiens
HEK293 [6] = experiment: cells; type: functional, cell-based; conditions: Homo sapiens; remark: listed apart in the source
HEK293 [7] = experiment: NOD2 signaling inhibitors in MDP-stimulated cells, cell-based, uHTS, luminescence (AID 2001); type: functional; conditions: Homo sapiens
HEK293 [8] = experiment: cells; type: functional, cell-based; conditions: Homo sapiens; remark: listed apart in the source
Aminopeptidase N = target: T3, Aminopeptidase N (Plasmodium falciparum FcB1/Columbia, UniProt O96935); experiment: malaria alanyl aminopeptidase activity blockers – biochemical, fluorogenic H-Leu-NHMec substrate, 1536-well (AID 1445); design: species or system Plasmodium falciparum 3D7, 3D7
T3 sequence (O96935 whole entry): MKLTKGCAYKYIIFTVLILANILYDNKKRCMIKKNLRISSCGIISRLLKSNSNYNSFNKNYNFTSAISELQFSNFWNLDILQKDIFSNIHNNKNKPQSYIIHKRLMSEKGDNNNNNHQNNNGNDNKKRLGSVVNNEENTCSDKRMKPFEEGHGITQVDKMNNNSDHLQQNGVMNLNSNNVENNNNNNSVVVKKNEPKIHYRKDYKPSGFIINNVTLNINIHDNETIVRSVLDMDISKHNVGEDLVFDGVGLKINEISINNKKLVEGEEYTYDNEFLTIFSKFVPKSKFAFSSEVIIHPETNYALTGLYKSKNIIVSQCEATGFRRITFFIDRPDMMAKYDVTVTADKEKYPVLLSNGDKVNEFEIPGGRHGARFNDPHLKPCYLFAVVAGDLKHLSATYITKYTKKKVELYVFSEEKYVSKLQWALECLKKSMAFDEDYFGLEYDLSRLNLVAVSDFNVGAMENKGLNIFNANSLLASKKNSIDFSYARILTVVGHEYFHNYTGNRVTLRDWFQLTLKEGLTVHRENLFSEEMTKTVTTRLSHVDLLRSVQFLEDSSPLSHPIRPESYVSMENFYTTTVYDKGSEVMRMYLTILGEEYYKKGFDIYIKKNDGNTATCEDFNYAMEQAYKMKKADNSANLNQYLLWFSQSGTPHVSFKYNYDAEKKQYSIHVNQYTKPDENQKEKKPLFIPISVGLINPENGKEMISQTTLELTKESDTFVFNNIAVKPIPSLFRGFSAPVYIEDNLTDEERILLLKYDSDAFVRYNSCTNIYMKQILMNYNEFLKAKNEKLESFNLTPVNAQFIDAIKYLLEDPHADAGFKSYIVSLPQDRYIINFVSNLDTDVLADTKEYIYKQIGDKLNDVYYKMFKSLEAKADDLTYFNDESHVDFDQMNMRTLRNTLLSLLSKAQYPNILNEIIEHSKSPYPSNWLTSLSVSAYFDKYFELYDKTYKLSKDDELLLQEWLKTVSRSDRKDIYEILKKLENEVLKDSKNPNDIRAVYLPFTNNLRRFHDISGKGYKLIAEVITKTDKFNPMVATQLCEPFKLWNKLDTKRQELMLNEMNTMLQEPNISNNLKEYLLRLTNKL

[9] = THP-1 cell cytotoxicity, dose response, cytotoxicity control for non-replicating M. tuberculosis project (AID 489025); type: functional
[10] = target: T4, Mannose-6-phosphate isomerase (Homo sapiens, UniProt P34949); experiment: MPI inhibition at elevated mannose 6-phosphate – biochemical, fluorescence intensity, high mannose 6-phosphate, primary screen (AID 1220)
T4 sequence (P34949 whole entry): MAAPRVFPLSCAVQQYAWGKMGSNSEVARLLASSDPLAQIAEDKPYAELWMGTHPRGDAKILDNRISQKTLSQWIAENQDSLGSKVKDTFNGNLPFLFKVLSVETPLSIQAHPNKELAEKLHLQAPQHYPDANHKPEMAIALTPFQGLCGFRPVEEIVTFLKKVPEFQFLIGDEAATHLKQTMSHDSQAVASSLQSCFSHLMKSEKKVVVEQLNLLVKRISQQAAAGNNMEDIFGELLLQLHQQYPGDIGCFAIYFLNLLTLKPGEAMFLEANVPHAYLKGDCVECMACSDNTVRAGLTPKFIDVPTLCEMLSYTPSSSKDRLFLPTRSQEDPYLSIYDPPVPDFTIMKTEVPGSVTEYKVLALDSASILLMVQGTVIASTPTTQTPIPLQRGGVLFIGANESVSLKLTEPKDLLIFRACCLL

cells = type: functional
[11] = viability loss in human Jurkat cells – cell-based, luminescence, cytotoxicity control for P. falciparum gametocyte viability project, dose response (AID 1117277); type: functional;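 also: potency reflects loss of cellular ATP meaning fewer viable cells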
[12] = viability inhibitors of stage V gametocytes – luminescence, dose response (AID 1117278); type: functional, cell-based;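 also: gametocytes exposed to compound for 24 hours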
[13] = target: T5, Short transient receptor potential channel 4 (Mus musculus, UniProt Q9QUQ5); experiment: calcium entry via TRPC4 opening agents – cell-based, HEK293 TRPC4/mu-opioid, Fluo-4 calcium, dose response (AID 434937); type: functional
T5 sequence (Q9QUQ5 whole entry): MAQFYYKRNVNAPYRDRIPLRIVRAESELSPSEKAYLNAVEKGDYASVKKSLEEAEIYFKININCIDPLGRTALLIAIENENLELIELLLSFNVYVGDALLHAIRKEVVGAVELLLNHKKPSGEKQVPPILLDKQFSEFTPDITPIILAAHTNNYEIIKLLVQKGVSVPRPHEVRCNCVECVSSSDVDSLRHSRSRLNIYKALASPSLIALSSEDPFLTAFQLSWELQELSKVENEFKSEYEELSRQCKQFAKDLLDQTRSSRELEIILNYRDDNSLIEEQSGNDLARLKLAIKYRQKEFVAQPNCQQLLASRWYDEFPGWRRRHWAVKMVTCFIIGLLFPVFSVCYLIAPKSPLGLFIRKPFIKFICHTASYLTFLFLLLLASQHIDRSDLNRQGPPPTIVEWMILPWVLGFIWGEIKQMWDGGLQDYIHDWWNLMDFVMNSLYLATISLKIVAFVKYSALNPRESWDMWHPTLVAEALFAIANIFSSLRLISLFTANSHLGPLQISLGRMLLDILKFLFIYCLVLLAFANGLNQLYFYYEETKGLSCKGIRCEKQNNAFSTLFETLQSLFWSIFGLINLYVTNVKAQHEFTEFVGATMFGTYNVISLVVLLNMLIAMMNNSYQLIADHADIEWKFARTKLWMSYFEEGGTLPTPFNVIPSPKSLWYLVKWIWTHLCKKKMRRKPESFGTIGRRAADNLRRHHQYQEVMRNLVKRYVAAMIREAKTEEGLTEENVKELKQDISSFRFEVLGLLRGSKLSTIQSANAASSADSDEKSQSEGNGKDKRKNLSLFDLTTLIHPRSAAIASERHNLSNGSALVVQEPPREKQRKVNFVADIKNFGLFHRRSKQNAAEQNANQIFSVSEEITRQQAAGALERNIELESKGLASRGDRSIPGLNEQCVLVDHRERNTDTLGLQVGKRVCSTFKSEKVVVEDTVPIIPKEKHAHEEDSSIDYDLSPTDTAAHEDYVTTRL

Sequence of Intestinal-type alkaline phosphatase (P09923 whole entry): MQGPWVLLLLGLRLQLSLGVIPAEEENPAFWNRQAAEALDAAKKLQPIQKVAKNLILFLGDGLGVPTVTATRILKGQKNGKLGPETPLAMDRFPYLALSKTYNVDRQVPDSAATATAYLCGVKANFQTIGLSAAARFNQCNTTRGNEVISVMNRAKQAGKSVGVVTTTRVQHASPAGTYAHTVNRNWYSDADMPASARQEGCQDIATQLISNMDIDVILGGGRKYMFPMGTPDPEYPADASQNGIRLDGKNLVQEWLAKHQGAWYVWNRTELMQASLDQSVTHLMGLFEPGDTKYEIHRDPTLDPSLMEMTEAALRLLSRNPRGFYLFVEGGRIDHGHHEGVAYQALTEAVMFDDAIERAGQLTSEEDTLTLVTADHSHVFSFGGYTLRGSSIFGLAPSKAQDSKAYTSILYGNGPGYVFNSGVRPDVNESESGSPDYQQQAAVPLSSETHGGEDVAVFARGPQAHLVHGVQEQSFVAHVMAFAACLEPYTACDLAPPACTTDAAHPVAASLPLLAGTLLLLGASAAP
Sequence of Cytochrome P450 2C9 (P11712 whole entry): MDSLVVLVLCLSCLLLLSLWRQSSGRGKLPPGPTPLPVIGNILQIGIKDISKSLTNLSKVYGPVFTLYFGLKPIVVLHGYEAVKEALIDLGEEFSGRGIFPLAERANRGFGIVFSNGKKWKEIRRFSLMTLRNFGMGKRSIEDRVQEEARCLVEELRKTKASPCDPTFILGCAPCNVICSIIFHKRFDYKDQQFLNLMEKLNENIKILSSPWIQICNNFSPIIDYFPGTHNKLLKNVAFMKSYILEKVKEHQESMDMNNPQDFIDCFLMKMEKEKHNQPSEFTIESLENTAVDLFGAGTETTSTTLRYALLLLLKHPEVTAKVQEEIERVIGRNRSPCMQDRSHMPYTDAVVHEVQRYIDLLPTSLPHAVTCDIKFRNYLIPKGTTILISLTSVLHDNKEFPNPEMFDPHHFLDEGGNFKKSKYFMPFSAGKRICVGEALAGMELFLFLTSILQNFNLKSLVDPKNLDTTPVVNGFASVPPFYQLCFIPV
Sequence of Nucleotide-binding oligomerization domain-containing protein 2 (Q9HC29 whole entry, the tested form may be a part): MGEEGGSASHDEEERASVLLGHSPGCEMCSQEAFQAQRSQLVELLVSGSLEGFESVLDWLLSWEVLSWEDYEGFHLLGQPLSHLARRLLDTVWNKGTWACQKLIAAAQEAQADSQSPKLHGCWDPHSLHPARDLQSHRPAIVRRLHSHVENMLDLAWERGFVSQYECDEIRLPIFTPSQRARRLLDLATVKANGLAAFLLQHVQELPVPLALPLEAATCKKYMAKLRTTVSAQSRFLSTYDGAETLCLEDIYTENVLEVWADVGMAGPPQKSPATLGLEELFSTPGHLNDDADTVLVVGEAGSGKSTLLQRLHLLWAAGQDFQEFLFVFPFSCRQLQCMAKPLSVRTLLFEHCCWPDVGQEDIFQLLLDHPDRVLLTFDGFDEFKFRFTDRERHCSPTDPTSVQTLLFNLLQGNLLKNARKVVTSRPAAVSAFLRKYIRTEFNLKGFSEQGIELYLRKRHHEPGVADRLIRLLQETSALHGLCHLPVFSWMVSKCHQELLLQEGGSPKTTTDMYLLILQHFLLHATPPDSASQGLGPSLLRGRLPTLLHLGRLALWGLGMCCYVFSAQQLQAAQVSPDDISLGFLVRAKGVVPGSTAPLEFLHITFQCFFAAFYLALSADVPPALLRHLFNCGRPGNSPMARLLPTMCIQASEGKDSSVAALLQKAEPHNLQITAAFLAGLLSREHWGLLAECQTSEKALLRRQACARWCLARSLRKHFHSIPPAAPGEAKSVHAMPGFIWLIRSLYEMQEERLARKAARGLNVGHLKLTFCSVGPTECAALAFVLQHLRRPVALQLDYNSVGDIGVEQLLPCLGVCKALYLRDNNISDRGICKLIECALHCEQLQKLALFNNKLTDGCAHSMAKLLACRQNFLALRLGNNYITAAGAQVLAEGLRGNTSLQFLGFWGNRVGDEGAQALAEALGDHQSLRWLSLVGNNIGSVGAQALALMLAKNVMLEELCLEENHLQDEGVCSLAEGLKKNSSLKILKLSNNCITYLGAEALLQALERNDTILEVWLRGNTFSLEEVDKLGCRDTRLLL

Structure (SMILES): O=C(COC(=O)c1ccc(S(=O)(=O)NCc2ccco2)cc1)NCC1CCCCC1
- IC50 (Bcl-2-like protein 10): > 100 µM (inactive)

Structure (SMILES): c1cc2c3c(cccc3c1)NC1(CCCCCC1)N2
- IC50 (Bcl-2-like protein 10): 78.4 µM (inactive)
- IC50 [1]: 6.58 µM (active)

Structure (SMILES): CCOC(=O)c1c(NC(=O)Cn2cc([N+](=O)[O-])cn2)sc2c1CCC2
- AC50 (Cytochrome P450 2C9): 3.55 µM (inconclusive)
- IC50 [2]: > 100 µM (inactive)

Structure (SMILES): COc1ccc(C)cc1NC(=O)CSc1ccc(-c2ccco2)nn1
- IC50 (HEK293 [3]): > 20 µM (inactive)
- EC50 [4]: > 20 µM (inactive)
- EC50 (HEK293 [5]): > 20 µM (inactive)
- IC50 (HEK293 [6]): > 20 µM (inactive)
- IC50 (HEK293 [7]): 9.49 µM (inactive)
- IC50 (HEK293 [8]): > 20 µM (inactive)

Structure (SMILES): CC(NC(=O)CN(C)S(=O)(=O)c1c[nH]cn1)c1ccccc1 (configuration not stated)
- IC50 (Aminopeptidase N): 54.6 µM (active)

Structure (SMILES): O=C(CCN1CCOCC1)c1ccc(Br)cc1
- CC50 [9]: > 40 µM (active)
- IC50 [10]: 43 µM (active)
- IC50 (cells): 11.8 µM (active)

Structure (SMILES): O=C(Cc1c(F)cccc1Cl)Nc1ncc([N+](=O)[O-])s1
- CC50 [9]: > 40 µM (active)
- IC50 [11]: > 83.3 µM (inactive)
- IC50 [12]: > 109 µM (inactive)

Structure (SMILES): CCn1cnc2sc(C(=O)O)c(C)c2c1=O
- IC50 [2]: > 100 µM (inactive)

Structure (SMILES): O=C(O)c1ccc(-c2ccc(/C=N/Nc3ccc([N+](=O)[O-])cc3)o2)cc1
- IC50 (Aminopeptidase N): 43.1 µM (active)
- EC50 [13]: 2.11 µM (active)

Structure (SMILES): O=C(CNC(=O)c1ccncc1)N/N=C/c1cc(Br)ccc1O
- IC50 (Aminopeptidase N): 24.5 µM (active)
